Like-named read-outs stand apart in the source and are kept apart here.
Tests used:
[1] = molecular target: T1, uOR (Mus musculus, UniProt P42866); assay: β-arrestin recruitment to uOR / receptor internalization; format: cell-based; set-up: expressed in transfected cells
Source text: The data provided in Tables 1A and 1B below were obtained using standard analytical techniques known to those skilled in the art. Such techniques are described in detail in C.
[…] were transiently transfected (electroporation) with combinations of cDNA for hemagglutinin (HA-N terminus)-tagged uOR, beta-arrestin2 tagged with green fluorescent protein, mouse uOR tagged at the C terminus with yellow fluorescent protein and GRK-2. […] After addition of drug, cells were visualized using confocal microscopy. Multiple cells were recorded per dish after more than four separate transfection experiments—representative cells are shown in the manuscript.
The “β-arrestin Recruitment EC50±SEM” column in Table 2 below represents the degree to which each tested compound recruited beta-arrestin to interact with uOR. As will be appreciated by those skilled in the art, EC50 refers to the concentration of a drug which induces a response halfway between the baseline and maximum after a specified exposure time. In this instance, lower values indicate greater potency of the molecule, and this is […].
As will also be understood by those skilled in the art, “Max Fold Efficacy” refers to the maximum signal/background ratio that an agonist will induce or, conversely, that an antagonist will inhibit an agonist from inducing a response. In Table 2 below, the “Max Fold Efficacy” column indicates the strength of the signal increase over the control/background measurement for uOR receptor internalization at the E.C. 50.

[2] = molecular target: T1, uOR; assay: Agonist induced ERK 1/2 phosphorylation (efficacy and potency relative to DAMGO)
[3] = maximum signal/background ratio for uOR receptor internalization at the EC50
[4] = recruitment of beta-arrestin to interact with uOR, bound given in μM, read-out: β-arrestin Recruitment EC50 ± SEM

T1 sequence (P42866 whole entry): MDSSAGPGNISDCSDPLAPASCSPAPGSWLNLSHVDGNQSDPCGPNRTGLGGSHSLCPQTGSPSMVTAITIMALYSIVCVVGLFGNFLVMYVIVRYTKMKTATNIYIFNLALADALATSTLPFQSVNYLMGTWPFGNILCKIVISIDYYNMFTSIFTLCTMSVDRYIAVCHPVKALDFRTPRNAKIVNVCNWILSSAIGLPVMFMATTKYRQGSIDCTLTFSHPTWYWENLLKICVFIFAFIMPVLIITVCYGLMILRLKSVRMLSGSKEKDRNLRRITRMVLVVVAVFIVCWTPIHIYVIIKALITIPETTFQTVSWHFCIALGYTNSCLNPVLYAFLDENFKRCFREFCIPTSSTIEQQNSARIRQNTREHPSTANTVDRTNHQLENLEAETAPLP

Row | Compound | EC50 [1] [µM] | Max Fold Efficacy [1, 3] | EC50 [2] [nM] | EC50 [1, 4] [µM] | Max Fold Efficacy [1]
1 | COC(=O)[C@@H]1C[C@H](NC(=O)c2ccccc2)C(=O)[C@H]2[C@@]1(C)CC[C@H]1C(=O)O[C@H](c3ccoc3)C[C@]21C | 9.19 ± 2.75 | 21.73 | 0.232 | – | –
2 | COC(=O)[C@@H]1C[C@H](OC(=O)c2cnc(C)cn2)C(=O)[C@H]2[C@@]1(C)CC[C@H]1C(=O)O[C@H](c3ccoc3)C[C@]21C | – | 1.8 | 1280 | > 10 | –
3 | COC(=O)[C@@H]1C[C@H](NC(=O)NC(=O)c2ccccc2)C(=O)[C@H]2[C@@]1(C)CC[C@H]1C(=O)O[C@H](c3ccoc3)C[C@]21C [Formula Ib-i] | – | 3.14 | 610 | > 10 | –
4 | COC(=O)[C@@H]1C[C@H](OC(=O)Nc2ccc(C#N)cc2)C(=O)[C@H]2[C@@]1(C)CC[C@H]1C(=O)O[C@H](c3ccoc3)C[C@]21C [Formula Ia-i] | 9.85 ± 0.153 | 9.5 | 35.5 | – | –
5 | COC(=O)[C@@H]1C[C@H](OC(=O)Nc2cc(C)on2)C(=O)[C@H]2[C@@]1(C)CC[C@H]1C(=O)O[C@H](c3ccoc3)C[C@]21C [Formula Ic-v] | – | 2.4 | 118 | > 10 | –
6 | COC(=O)[C@@H]1C[C@H](OC(=O)c2ccccc2)C(=O)[C@H]2[C@@]1(C)CC[C@H]1C(=O)O[C@H](c3ccoc3)C[C@]21C | – | 2.4 | 1110 | > 10 | –
7 | COC(=O)[C@@H]1C[C@H](OC(=O)c2cc(C)cs2)C(=O)[C@H]2[C@@]1(C)CC[C@H]1C(=O)O[C@H](c3ccoc3)C[C@]21C [Formula Id-iii] | – | 6.1 | 377 | > 10 | –
8 | COC(=O)[C@@H]1C[C@H](OC(=O)Nc2ccc(C)cc2)C(=O)[C@H]2[C@@]1(C)CC[C@H]1C(=O)O[C@H](c3ccoc3)C[C@]21C [Formula Ia-ii] | – | 8.8 | 108 | > 10 | –
9 | COC(=O)[C@@H]1C[C@H](OC(=O)c2cnc(C)nc2)C(=O)[C@H]2[C@@]1(C)CC[C@H]1C(=O)O[C@H](c3ccoc3)C[C@]21C [Formula Id-i] | – | 4.2 | 2.85 | > 10 | –
10 | COC(=O)[C@@H]1C[C@H](OC(=O)Nc2ccc(F)cc2)C(=O)[C@H]2[C@@]1(C)CC[C@H]1C(=O)O[C@H](c3ccoc3)C[C@]21C [Formula Ia-iv] | – | 4.3 | 156 | > 10 | –
11 | COC(=O)[C@@H]1C[C@H](OC(=O)c2ccc(Cl)nc2)C(=O)[C@H]2[C@@]1(C)CC[C@H]1C(=O)O[C@H](c3ccoc3)C[C@]21C [Formula Id-ii] | – | 9.3 | 373 | > 10 | –
12 | COC(=O)[C@@H]1C[C@H](OC(=O)c2nc(C)co2)C(=O)[C@H]2[C@@]1(C)CC[C@H]1C(=O)O[C@H](c3ccoc3)C[C@]21C | – | – | 5990 | > 10 | –
13 | COC(=O)[C@@H]1C[C@H](OC(=O)c2ccc(C(F)(F)F)cc2)C(=O)[C@H]2[C@@]1(C)CC[C@H]1C(=O)O[C@H](c3ccoc3)C[C@]21C | – | – | 930 | > 10 | –
14 | Met-Enkephalin [reference compound] | – | – | – | – | 38.3
15 | COC(=O)[C@@H]1C[C@H](OC(=O)Nc2ncc(C)s2)C(=O)[C@H]2[C@@]1(C)CC[C@H]1C(=O)O[C@H](c3ccoc3)C[C@]21C | – | – | 1280 | > 10 | –
16 | CCc1ncc(C(=O)O[C@H]2C[C@@H](C(=O)OC)[C@]3(C)CC[C@H]4C(=O)O[C@H](c5ccoc5)C[C@]4(C)[C@H]3C2=O)cn1 | – | 5.1 | 917 | > 10 | –
17 | COC(=O)[C@@H]1C[C@H](OC(=O)Nc2ccc(Cl)cc2)C(=O)[C@H]2[C@@]1(C)CC[C@H]1C(=O)O[C@H](c3ccoc3)C[C@]21C [Formula Ia-iii] | – | 7.6 | 146 | > 10 | –

Row | Compound | EC50 [1] [µM] | Max Fold Efficacy [1, 3] | EC50 [2] [nM] | EC50 [1, 4] [µM] | Max Fold Efficacy [1]
18 | COC(=O)[C@@H]1C[C@H](OC(=O)Nc2ccc(C(F)(F)F)cc2)C(=O)[C@H]2[C@@]1(C)CC[C@H]1C(=O)O[C@H](c3ccoc3)C[C@]21C [Formula Ia-vi] | – | 5.1 | 327 | > 10 | –
19 | COC(=O)[C@@H]1C[C@H](OC(=O)c2ccc(F)cc2)C(=O)[C@H]2[C@@]1(C)CC[C@H]1C(=O)O[C@H](c3ccoc3)C[C@]21C | – | 2.2 | 1640 | > 10 | –
20 | COC(=O)[C@@H]1C[C@H](OC(=O)c2ccon2)C(=O)[C@H]2[C@@]1(C)CC[C@H]1C(=O)O[C@H](c3ccoc3)C[C@]21C | – | 1 | 3780 | > 10 | –
21 | COC(=O)[C@@H]1C[C@H](OC(=O)NC(=O)c2ccccc2)C(=O)[C@H]2[C@@]1(C)CC[C@H]1C(=O)O[C@H](c3ccoc3)C[C@]21C [Formula Ib-ii] | – | 4.8 | 633 | > 10 | –
22 | COC(=O)[C@@H]1C[C@H](OC(=O)Nc2ccc(SC(F)(F)F)cc2)C(=O)[C@H]2[C@@]1(C)CC[C@H]1C(=O)O[C@H](c3ccoc3)C[C@]21C | – | – | 2300 | > 10 | –
23 | COC(=O)[C@@H]1C[C@H](OC(=O)Nc2ccc(Cl)c(Cl)c2)C(=O)[C@H]2[C@@]1(C)CC[C@H]1C(=O)O[C@H](c3ccoc3)C[C@]21C | – | – | 1850 | > 10 | –
24 | COC(=O)[C@@H]1C[C@H](OC(=O)Nc2ccc(F)c(F)c2)C(=O)[C@H]2[C@@]1(C)CC[C@H]1C(=O)O[C@H](c3ccoc3)C[C@]21C [Formula Ia-vii] | – | 2.2 | 412 | > 10 | –
25 | COC(=O)[C@@H]1C[C@H](NC(=O)Nc2ccc(C#N)cc2)C(=O)[C@H]2[C@@]1(C)CC[C@H]1C(=O)O[C@H](c3ccoc3)C[C@]21C | – | – | 4290 | > 10 | –
26 | COC(=O)[C@@H]1C[C@H](NC(=O)NS(=O)(=O)c2ccc(Cl)cc2)C(=O)[C@H]2[C@@]1(C)CC[C@H]1C(=O)O[C@H](c3ccoc3)C[C@]21C | – | – | > 10000 | > 10 | –
27 | CCc1ncc(NC(=O)O[C@H]2C[C@@H](C(=O)OC)[C@]3(C)CC[C@H]4C(=O)O[C@H](c5ccoc5)C[C@]4(C)[C@H]3C2=O)cn1 | – | – | 7460 | > 10 | –
28 | COC(=O)[C@@H]1C[C@H](OC(=O)Nc2ccccc2)C(=O)[C@H]2[C@@]1(C)CC[C@H]1C(=O)O[C@H](c3ccoc3)C[C@]21C | – | – | 1200 | > 10 | –
29 | COC(=O)[C@@H]1C[C@H](OC(=O)c2cc(C)on2)C(=O)[C@H]2[C@@]1(C)CC[C@H]1C(=O)O[C@H](c3ccoc3)C[C@]21C | – | 1.3 | 1750 | > 10 | –
30 | COC(=O)[C@@H]1C[C@H](OC(=O)Nc2nc(C)cs2)C(=O)[C@H]2[C@@]1(C)CC[C@H]1C(=O)O[C@H](c3ccoc3)C[C@]21C [Formula Ic-ii] | – | 3.8 | 25.2 | > 10 | –
31 | COC(=O)[C@@H]1C[C@H](OC(=O)Nc2cnc(C)nc2)C(=O)[C@H]2[C@@]1(C)CC[C@H]1C(=O)O[C@H](c3ccoc3)C[C@]21C [Formula Ic-iv] | – | 2.8 | 79.1 | > 10 | –
32 | COC(=O)[C@@H]1C[C@H](OC(=O)Nc2csc(C)n2)C(=O)[C@H]2[C@@]1(C)CC[C@H]1C(=O)O[C@H](c3ccoc3)C[C@]21C [Formula Ic-i] | 2.07 ± 0.649 | 31.3 | 0.854 | – | –
33 | COC(=O)[C@@H]1C[C@H](OC(=O)Nc2ccc(Cl)cc2F)C(=O)[C@H]2[C@@]1(C)CC[C@H]1C(=O)O[C@H](c3ccoc3)C[C@]21C [Formula Ia-viii] | – | 2.3 | 522 | > 10 | –
34 | COC(=O)[C@@H]1C[C@H](OC(=O)Nc2cnc(C)cn2)C(=O)[C@H]2[C@@]1(C)CC[C@H]1C(=O)O[C@H](c3ccoc3)C[C@]21C [Formula Ic-iii] | – | 9.5 | 35.7 | > 10 | –

Reference: patent US10556889B1, “Salvinorin derivatives” (Blue Sky Pharmaceuticals, LLC, priority 2018, dated 2020)
